Laboratory results published in publication PMC8958505, “Discovery of Potential Neuroprotective Agents against Paclitaxel-Induced Peripheral Neuropathy” (Journal of Medicinal Chemistry, 2022).

Legend:
primary cortical neurons [1] = assay: Synaptogenesis assay of primary cortical neurons (image-based HCS) against paclitaxel-induced neurotoxicity; assay type: cell-based, mouse; conditions: for activity at 0.01 µM / activity at 1 µM: Mus musculus, Primary cortical neuron; for activity at 0.01 µM: read-out: A: Synaptogenesis (% of control) of test compound (10 nM) + paclitaxel (1 μM); for activity at 1 µM: read-out: B: Synaptogenesis (% of control) of test compound (1000 nM) + paclitaxel (1 μM)
From the text: (§1) Herein, we wish to report that an in vitro neurite outgrowth assay of cortical neurons integrated with an image-based high-content screening (HCS) platform is used to evaluate a commercially available library of 78 minoxidil-related derivatives,[22] leading to the identification of a series of analogues able to prevent or alleviate paclitaxel-induced neurotoxicity. The project began with screening compounds with the primary culture of cortical neurons from neonatal mice. More specifically, cerebral cortex neurons cultured from P0 C57BL/6J mouse pups were incubated with a test compound (10 and 1000 nM) prior to paclitaxel (1 μM) treatment. Subsequently, both neurite outgrowth and synaptogenesis were measured to evaluate the test compounds’ neuroprotective capacity. […] This unique feature is preserved for the core-structure screening of our in-house library in the following subject. Moreover, the substituent at the C4 position appears flexible in terms of structural diversity. Collectively, CSV0A024807, the only one displaying the best neuroprotective potency on both neurite outgrowth and synaptogenesis assays, was thus elected as a potential hit compound for further development.
(§2) Primary cortical or DRG cells were fixed with 4% paraformaldehyde for 15 min following compound and paclitaxel treatment. After washing with PBS, the fixed cells were permeabilized with PBS containing 0.05% Triton X-100 for 20 min and then blocked with commercial blocking buffer (#GTX30963; GeneTex, USA) at room temperature for 1 h. Subsequently, the cortical cells were stained for the extending processes and synaptic puncta by using anti-MAP2 (#MBS502140, 1:500; Mybiosource, USA) and anti-synaptophysin (#ab32127, 1:500; Abcam, UK) overnight. DRG cells were stained for the neurite and neuron nucleus by using anti-β III tubulin (#D71G9, 1:600; Cell Signaling, USA) and anti-NeuN monoclonal antibody (#MAB377, 1:400; Millipore, USA) overnight. On the second day, the samples were washed for 30 min with wash buffer and incubated with secondary antibodies (Alexa-488, 647 1:600; Thermo Fisher, USA) and 4 μg/mL Hoechst 33258 (#94403-1ML, 1:100; Merck, USA) at room temperature for 1 h. In the initial experiments of screening the potential neuroprotective compound for CIPN, ImageXpress^Micro (IXM) high-content imaging system (Molecular Devices, USA) driven by MetaXpress software was used. Images of treated cells were automatically acquired by using a 10× objective. Twenty-one images per well were taken in each of three channels (DAPI, FITC, and Cy5) to create a whole view of the entire neural network. The integrity of the neural network was evaluated using TIF images by importing them into MetaXpress software for analysis using the module for multiparameter, such as Neurite Outgrowth, Cell Scoring, and Transfluor. Furthermore, the score of synaptogenesis was analyzed in AcuityXpress software (Molecular Devices, USA).

primary cortical neurons [2] = assay: Neurite outgrowth assay of primary cortical neurons (image-based HCS) against paclitaxel-induced neurotoxicity; assay type: cell-based, mouse; conditions: Mus musculus, Primary cortical neuron; for activity at 0.01 µM: read-out: C: Neurite outgrowth (% of control) of test compound (10 nM) + paclitaxel (1 μM); for activity at 1 µM: read-out: D: Neurite outgrowth (% of control) of test compound (1000 nM) + paclitaxel (1 μM)
From the text: as §1, §2

[3] = test compound 10 nM + paclitaxel 1 μM, mean ± SE
[4] = test compound 1000 nM + paclitaxel 1 μM, mean ± SE

Structure (SMILES) | activity at 0.01 µM (primary cortical neurons [1]; [3]) | activity at 1 µM (primary cortical neurons [1]; [4]) | attenuation of synaptogenesis inhibited by paclitaxel (in words) (primary cortical neurons [1]; test compound 10 and 1000 nM prior to paclitaxel 1 μM, Figure 1A) | activity at 0.01 µM (primary cortical neurons [2]; [3]) | activity at 1 µM (primary cortical neurons [2]; [4]) | activity at 0.01 µM (primary cortical neurons [1]) | activity at 1 µM (primary cortical neurons [1]) | activity at 0.01 µM (primary cortical neurons [2]) | activity at 1 µM (primary cortical neurons [2])
CN(C)c1cc(N/N=C/c2cccs2)nc(N(C)C)n1 [CSV0A055769] | 83 ± 1% | 97 ± 8% | significantly attenuated | 68 ± 3% | 62 ± 2% |  |  |  | 
CCCN(CCC)c1cc(N/N=C/c2cc(Br)ccc2O)nc(N(CCC)CCC)n1 [CSV0A020330] | 22 ± 3% | 45 ± 7% |  | 27 ± 2% | 45 ± 3% |  |  |  | 
CCN(CC)c1cc(N/N=C/c2ccc(O)c(OC)c2)nc(N(CC)CC)n1 [CSV0B009489] | 34 ± 3% | 36 ± 3% |  | 39 ± 4% | 41 ± 3% |  |  |  | 
O=[N+]([O-])c1cc(/C=N/Nc2cc(N3CCCCCC3)nc(N3CCCCCC3)n2)cc2c1OCO2 [CSV0A024811] | 52 ± 1% | 46 ± 4% |  | 69 ± 7% | 60 ± 3% |  |  |  | 
CN(C)c1ccc(/C=N/Nc2cc(N3CCCC3)nc(N3CCCC3)n2)cc1 [CSV0A027460] | 47 ± 1% | 33 ± 3% |  | 77 ± 1% | 63 ± 3% |  |  |  | 
CC(C)(C)c1ccc(C(=O)NNc2cc(N3CCCC3)nc(N3CCCC3)n2)cc1 [CSV0A062713] | 33 ± 1% | 36 ± 2% |  | 85 ± 8% | 74 ± 5% |  |  |  | 
CCN(CC)c1cc(N/N=C/c2ccccc2OC)nc(N(CC)CC)n1 [CSV0A007655] | 39 ± 4% | 41 ± 2% |  | 45 ± 7% | 51 ± 3% |  |  |  | 
Clc1ccc(/C=N/Nc2cc(N3CCCCCC3)nc(N3CCCCCC3)n2)cc1 [CSV0A027457] | 51 ± 4% | 39 ± 4% |  | 62 ± 4% | 51 ± 4% |  |  |  | 
CN(C)c1cc(N/N=C/c2ccccc2)nc(N(C)C)n1 [CSV0A047582] |  |  |  |  |  | 73 ± 3% | 77 ± 9% | 69 ± 3% | 67 ± 3%
CC(C)(C)c1ccc(C(=O)NNc2cc(N3CCCCC3)nc(N3CCCCC3)n2)cc1 [CSV0B001160] | 51 ± 5% | 41 ± 1% |  | 89 ± 7% | 80 ± 5% |  |  |  | 
Clc1ccc(/C=N/Nc2cc(N3CCOCC3)nc(N3CCOCC3)n2)cc1 [CSV0A024808] | 27 ± 1% | 25 ± 1% |  | 91 ± 1% | 89 ± 4% |  |  |  | 
CN(C)c1cc(N/N=C/c2ccc(Cl)cc2Cl)nc(N(C)C)n1 [CSV0A047585] | 67 ± 2% | 56 ± 0.2% |  | 57 ± 2% | 57 ± 2% |  |  |  | 
COc1cc(/C=N/Nc2cc(N3CCCCC3)nc(N3CCCCC3)n2)ccc1O [CSV0B006088] | 45 ± 6% | 52 ± 10% |  | 59 ± 5% | 66 ± 7% |  |  |  | 
COc1cc(/C=N/Nc2cc(N3CCCC3)nc(N3CCCC3)n2)ccc1O [CSV0B016174] | 43 ± 3% | 36 ± 4% |  | 86 ± 3% | 76 ± 4% |  |  |  | 
O=[N+]([O-])c1ccc(/C=N/Nc2cc(N3CCCC3)nc(N3CCCC3)n2)cc1 [CSV0A024812] | 55 ± 6% | 62 ± 3% |  | 53 ± 3% | 60 ± 1% |  |  |  | 
O=[N+]([O-])c1ccc(/C=N/Nc2cc(N3CCCCC3)nc(N3CCCCC3)n2)cc1 [CSV0A011998] | 75 ± 1% | 55 ± 2% |  | 77 ± 5% | 61 ± 6% |  |  |  | 
CC(C)(C)c1ccc(C(=O)NNc2cc(N3CCOCC3)nc(N3CCOCC3)n2)cc1 [CSV0B026196] | 36 ± 2% | 32 ± 1% |  | 83 ± 5% | 65 ± 4% |  |  |  | 
